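Dose response: 5 concentrations. Exposure: 48 h. Format: 96-well plates. Endpoint: linear interpolation; highest concentration if not reached. TGI denotes the concentration required for complete inhibition of growth.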
Experiments:
Assay in all cases: NCI anticancer screen, dose series, 48 h
HCC-2998 colon = test system: HCC-2998 colon
SF-295 CNS = test system: SF-295 CNS
NCI/ADR-RES ovarian = test system: NCI/ADR-RES ovarian
SR leukemia = test system: SR leukemia
MDA-N = test system: MDA-N
KM12 colon = test system: KM12 colon
NCI-H23 lung = test system: NCI-H23 lung
LOX IMVI melanoma = test system: LOX IMVI melanoma
UACC-257 melanoma = test system: UACC-257 melanoma
K-562 leukemia = test system: K-562 leukemia
HOP-92 NSCLC = test system: HOP-92 NSCLC
OVCAR-3 ovarian = test system: OVCAR-3 ovarian
SK-MEL-5 melanoma = test system: SK-MEL-5 melanoma
MALME-3M melanoma = test system: MALME-3M melanoma
SNB-19 CNS = test system: SNB-19 CNS
SW-620 colon = test system: SW-620 colon
T-47D breast = test system: T-47D breast
HCT-116 colon = test system: HCT-116 colon
RXF 393 renal = test system: RXF 393 renal
786-0 renal = test system: 786-0 renal
SK-MEL-2 melanoma = test system: SK-MEL-2 melanoma
PC-3 prostate = test system: PC-3 prostate
ACHN renal = test system: ACHN renal
OVCAR-4 ovarian = test system: OVCAR-4 ovarian
SNB-75 CNS = test system: SNB-75 CNS
M14 melanoma = test system: M14 melanoma
HT29 colon = test system: HT29 colon
OVCAR-5 ovarian = test system: OVCAR-5 ovarian
HS 578T breast = test system: HS 578T breast
MDA-MB-435 = test system: MDA-MB-435
U251 CNS = test system: U251 CNS
UACC-62 melanoma = test system: UACC-62 melanoma
OVCAR-8 ovarian = test system: OVCAR-8 ovarian
EKVX NSCLC = test system: EKVX NSCLC
A549 NSCLC = test system: A549 NSCLC
TK-10 renal = test system: TK-10 renal
HCT-15 colon = test system: HCT-15 colon
SK-OV-3 ovarian = test system: SK-OV-3 ovarian
CAKI-1 renal = test system: CAKI-1 renal
RPMI-8226 leukemia = test system: RPMI-8226 leukemia
MOLT-4 leukemia = test system: MOLT-4 leukemia
COLO 205 colon = test system: COLO 205 colon
UO-31 renal = test system: UO-31 renal
MDA-MB-231 breast = test system: MDA-MB-231 breast
SK-MEL-28 melanoma = test system: SK-MEL-28 melanoma
SN12C renal = test system: SN12C renal
NCI-H226 lung = test system: NCI-H226 lung
SF-268 CNS = test system: SF-268 CNS
HOP-62 NSCLC = test system: HOP-62 NSCLC
BT-549 breast = test system: BT-549 breast
CCRF-CEM leukemia = test system: CCRF-CEM leukemia
NCI-H460 lung = test system: NCI-H460 lung
MCF7 breast = test system: MCF7 breast
NCI-H522 lung = test system: NCI-H522 lung
SF-539 CNS = test system: SF-539 CNS
HL-60(TB) leukemia = test system: HL-60(TB) leukemia
IGROV1 ovarian = test system: IGROV1 ovarian
A498 renal = test system: A498 renal
DU-145 prostate = test system: DU-145 prostate

Measured: TGI

CC(C)C[C@H](NC(=O)[C@H](Cc1ccc(F)cc1)NC(=O)c1ccccn1)B(O)O
0.0504 µM: NCI-H460 lung
0.0933 µM: EKVX NSCLC
< 0.0107 µM: M14 melanoma
0.0465 µM: ACHN renal
1.07 µM: SK-OV-3 ovarian
0.165 µM: A549 NSCLC
0.0212 µM: NCI/ADR-RES ovarian
> 33.4 µM: SNB-19 CNS
1.12 µM: COLO 205 colon
< 0.01 µM: HCC-2998 colon | SF-295 CNS | SR leukemia | MDA-N | KM12 colon | NCI-H23 lung | LOX IMVI melanoma | UACC-257 melanoma | HOP-92 NSCLC | OVCAR-3 ovarian | SK-MEL-5 melanoma | MALME-3M melanoma | SW-620 colon | T-47D breast | HCT-116 colon | RXF 393 renal | 786-0 renal | SK-MEL-2 melanoma | PC-3 prostate | SNB-75 CNS | HT29 colon | OVCAR-5 ovarian | MDA-MB-435 | UACC-62 melanoma | OVCAR-8 ovarian | HCT-15 colon | UO-31 renal | MDA-MB-231 breast | SK-MEL-28 melanoma | SN12C renal | NCI-H226 lung | SF-268 CNS | HOP-62 NSCLC | BT-549 breast | NCI-H522 lung | SF-539 CNS
< 0.0121 µM: HS 578T breast
0.106 µM: U251 CNS
0.0193 µM: TK-10 renal
0.166 µM: MCF7 breast
> 100 µM: K-562 leukemia | RPMI-8226 leukemia | MOLT-4 leukemia | CCRF-CEM leukemia | HL-60(TB) leukemia
< 0.0124 µM: CAKI-1 renal
< 0.0326 µM: OVCAR-4 ovarian

Clc1ccc(OCc2nnc3sc(-c4ccc(-c5ccc(Cl)cc5Cl)o4)nn23)cc1
> 100 µM: SF-295 CNS | NCI/ADR-RES ovarian | SR leukemia | MDA-N | KM12 colon | IGROV1 ovarian | NCI-H23 lung | LOX IMVI melanoma | A498 renal | UACC-257 melanoma | K-562 leukemia | HOP-92 NSCLC | OVCAR-3 ovarian | SK-MEL-5 melanoma | MALME-3M melanoma | SNB-19 CNS | SW-620 colon | T-47D breast | HCT-116 colon | 786-0 renal | SK-MEL-2 melanoma | PC-3 prostate | ACHN renal | OVCAR-4 ovarian | M14 melanoma | HT29 colon | OVCAR-5 ovarian | HS 578T breast | MDA-MB-435 | U251 CNS | OVCAR-8 ovarian | EKVX NSCLC | A549 NSCLC | TK-10 renal | HCT-15 colon | SK-OV-3 ovarian | CAKI-1 renal | RPMI-8226 leukemia | MOLT-4 leukemia | COLO 205 colon | UO-31 renal | MDA-MB-231 breast | SK-MEL-28 melanoma | SN12C renal | NCI-H226 lung | SF-268 CNS | HOP-62 NSCLC | BT-549 breast | CCRF-CEM leukemia | NCI-H460 lung | DU-145 prostate | NCI-H522 lung | HL-60(TB) leukemia
54 µM: RXF 393 renal
31.3 µM: SNB-75 CNS
